# According to article PMC10178932, “The Antiangiogenic Effect and Ocular Pharmacology of Novel Modified Nonsteroidal Anti-Inflammatory Drugs in the Treatment of Oxygen-Induced Retinopathy” (Journal of Ocular Pharmacology and Therapeutics, 2023):
# “Also recorded” adds a separate entry of the source.
# Experiments:
# [1] = tested on: chicken chorioallantoic membrane (CAM); experiment: Ex ovo chicken chorioallantoic membrane (CAM) angiogenesis assay; assay type: in vivo; settings: 72 h
# Protocol: Fertilized chick eggs were obtained from Charles River Labs (North Franklin, CT) and transferred to a specialized incubator with an automatic rotating device (Grumbach, Lyon Technologies, Inc., Brutgerate GmbH, Germany) for 3 days at 37°C and 70% humidity. After incubation, the eggs were cracked, and the embryo was transferred to a 100 × 25 mm sterilized Petri dish in a laminar flow hood. The eggs were incubated for 7 days and the sterilized filter paper disc containing water, 50 μM of OXT-328, or 50 μM of Q-922, or 100 μM of CL-717 was plated on the yolk sac membrane. The filter papers were treated with each reagent twice per day. Three days later, the angiogenic response was expressed as microvessel density in the CAM area determined under a microscope.[25]
# in vivo = settings: mouse; for Cmax: Retinal Cmax; for Cmax / concentration at 1 h: adult mice; for concentration at 1 h: 1 h after OXT-328 3.5% eye drops (3 drops per eye)
# Protocol: (§3) In these studies, we used adult mice, giving us more ocular tissue to work with, even though differences may exist between adult and neonatal tissues. […] The pupils were dilated with topical 1% tropicamide. At different time points after the last eye drop, the mice were euthanized and their corneas and retinas were collected quickly, immediately frozen in liquid nitrogen, and stored at −80°C until analyzed.
# (§4) Briefly, each tissue sample was weighed and 100–300 μL ddH2O was added, depending on tissue weight, and homogenized.
# [2] = Uptake and biodistribution of CL-717 in explanted human eyes; assay type: in vitro ADME; settings: explanted human eye, tissues at 1 h, 35.5°C
# Protocol: Human eyes were obtained through the Lions Eye Bank for Long Island, Valley Stream, NY. […] The donor's identity was protected by de-identifying each sample. Following harvesting, they were transported on ice and delivered to the laboratory for study within 2 h after enucleation.
# The anterior surface of explanted human eyes was immersed in CL-717 10% solution for 1 or 10 min, followed by washing with ddH2O. The eyes were placed in a Petri dish with their anterior part facing up, and the dish was covered and incubated for 1 h at 35.5°C, the normal in vivo eye temperature.
# [3] = tested on: mice with oxygen-induced retinopathy (OIR); experiment: Oxygen-induced retinopathy (OIR) mouse model, AVA and NVA in retinal flat mounts; assay type: in vivo, mouse (C57BL/6); settings: for Avascular area (AVA), percent of total retinal area / Neovascular area (NVA), percent of total retinal area: mean ± SEM
# Protocol: C57BL/6 mice with or without pregnancy (Subline J, specific pathogen-free class) were purchased from Jackson Laboratory, Bar Harbor, ME, and housed in room air (21% oxygen) at 25°C and a 12-h light/12-h dark cycle, with free access to food and water. Animal experiments were designed to provide intralitter control and equal size groups. We used randomization and blinded analysis. After delivery, pups from 1 litter were randomized into groups, and the number of mice in each group was n ≥ 6.
# Pup litters together with their mothers were exposed to 75% oxygen from postnatal day 7 (P7) to P12 and returned to room air from P12 to P17.
# For retinal flat mounts,[22] on P17, the eyeballs of the mice were enucleated and fixed in 4% paraformaldehyde for 0.5 h. Once the eyeball was fixed, its posterior segment was excised and fixed further in the same solution for 1 h, after which the retina was dissected and fixed again in 4% paraformaldehyde overnight at 4°C. Following this, the retina was washed sequentially as follows: thrice in phosphate-buffered saline (PBS) with 0.1% Tween-20 for 10 min each; in 50% methanol for 10 min; in 100% methanol for 10 min; and thrice in PBS with 0.1% Tween-20 for 10 min each. The retina was then blocked with 1% bovine serum albumin in 0.5% Triton X-100 in PBS for 30 min; incubated with Alexa Fluor 488 conjugated isolectin-B4 overnight at 4°C; washed 4 times in 0.1% Tween-20 in PBS; mounted on a glass slide; and covered with PermaFluorTM aqueous mounting medium.
# Retinal flat mounts were imaged with an optical microscope at 10 × magnification, and the avascular area (AVA) and neovascular area (NVA) were delineated with ImageJ, a public domain Java image processing and analysis program. The software provides the user with the ability to determine total image surface area, AVA and NVA. Noncontinguous regions of interest such as AVA and NVA could be outlined and the areas could be summed. Results are expressed as a percent of the total surface area in dimensionless units. The person measuring the AVA and NVA was blinded as to the treatment received by that animal.
# Table 1 summarizes the routes of administration of each study drug (OXT-328, Q-922, CL-717). From previous studies, we knew that our lead compound OXT-328 was subject to rapid hydrolysis by carboxylesterases.
# (§1) We used a 10% solution of the water-soluble CL-717 in ddH2O with its pH adjusted to 5.0 ± 0.2 with NaOH, and its osmolality to 300 ± 20 mOsm/kg H2O with 18% NaCl. To formulate a 7.15% solution of Q-922 for topical delivery, 71.5 mg of Q-922 was dissolved in 800 μL of a 5% Tween 80/95% normal saline solution, pH 7.0. Additions of 150 μL of 15% solution of polyethylene glycol and 50 μL of 5% solution of Kolliphor EL were made to the Q-922 solution.
# (§2) The pH was adjusted to 6.8 and the final volume was 1 mL. Q-922 similar to CL-717 was applied to the ocular surface as 5 μL eye drops when P12 mice were returned to room air. To prepare OXT-328 eye drops, vitamin E TPGS (D-α-tocopheryl polyethylene glycol 1000 succinate) and polyquaternium-1 were dissolved in purified water. OXT-328 (3.5%) was added to this solution, and stirred at 70°C for 30 min. This solution was then centrifuged at 13,200 rpm for 10 min and the supernatant was collected. Mannitol and boric acid were added to the harvested supernatant. After pH adjustment to 6.7 ± 0.2 using NaOH, purified water was added to the final volume. The resulting solution was sterilized by filtration through a 0.22 μm filter.
# For intravitreal injections, Q-922 and OXT-328 were formulated as follows: vitamin E TPGS and polyquaternium-1 were dissolved in ddH2O and the respective drug was added, and the solution was stirred at 70°C for 30 min. This solution was then centrifuged at 13,200 rpm for 10 min and the supernatant was collected. Mannitol and boric acid were added to the supernatant to final concentrations of 3.18% (w/v) and 1.2% (w/v), respectively. […]
# [4] = Ocular pharmacokinetics and biodistribution in adult mice (HPLC tissue levels); settings: for concentration at 1 h: cornea, topical
# Protocol: as §3, §4
# [5] = design: method as in PMID 21955327; settings: systemically administered, rapidly hydrolyzed; cited from earlier work
# [6] = Safety: side effects during administration in mice; assay type: in vivo, mouse
# Protocol: as §1, §2
# [7] = 10% eye drops, 5 μL 5x/day, P12-P17
# [8] = 10% eye drops, 5 μL 5x/day, P12-P17, P17
# [9] = adult mice, single 1 μL intravitreal injection of OXT-328 1%
# [10] = read-out: Retinal Cmax, adult mice, single 1 μL intravitreal injection of OXT-328 1%, mean ± SEM
# [11] = 50 μM on filter disc twice per day
# [12] = single 1 μL intravitreal injection of 1% on P12, retinas on P17
# [13] = intraperitoneal 100 mg/kg once daily P7-P17
# [14] = intraperitoneal 150 mg/kg once daily P7-P17
# [15] = intraperitoneal 150 mg/kg once daily P7-P17, P17
# [16] = single 1 μL intravitreal injection of 1% on P12, P17
smiles,measurement,setting,value
"CCOP(=O)(NCCN1CCN(C(=O)CC2=C(C)/C(=C/c3ccc([S+](C)[O-])cc3)c3ccc(F)cc32)CC1)OCC (stereo not drawn) [CL-717, (Z)-diethyl 2-(4-(2-(5-fluoro-2-methyl-1-(4-(methylsulfinyl)benzylidene)-1H-inden-3-yl)acetyl)piperazin-1-yl)ethylphosphoramidate]",Reduction of average new vessel formation versus control,[1]; 100 μM on filter disc twice per day,34.2%
same,Tmax,in vivo; topical or ocular,0.5 h
same,half-life,in vivo; topical or ocular,4.7 h
same,Cmax,"in vivo; topical or ocular, 3 eye drops of CL-717 10% on the ocular surface",2.5 µM
same,CL-717 level in retina,[2]; ocular surface in 10% solution for 1 min,12.6 µM
same,CL-717 level in retina,[2]; ocular surface in 10% solution for 10 min,46.6 µM
same,AVA reduction versus vehicle,[3]; [7],65%
same,NVA reduction versus vehicle,[3]; [7],63%
same,"Avascular area (AVA), percent of total retinal area",[3]; [8],5.8% ± 0.8%
same,"Neovascular area (NVA), percent of total retinal area",[3]; [8],8.3% ± 1.6%
"CCOP(=O)(OCC)OCCCCOC(=O)CC1=C(C)/C(=C/c2ccc([S+](C)[O-])cc2)c2ccc(F)cc21 (stereo not drawn) [OXT-328, phospho-sulindac]",Retinal Tmax,[4]; [9],2 h
same,Cmax,[4]; [10],516 ± 64.4 µM
same,Reduction of average new vessel formation versus control,[1]; [11],29.3%
same,Level in plasma and many tissues like the eye after systemic administration,[5],essentially undetectable
same,half-life,in vivo,4.8 h
same,concentration at 1 h,"in vivo; Level in the cornea, mean ± SEM",0 µM
same,concentration at 1 h,"in vivo; Level in the retina, mean ± SEM",0.4 ± 0.2 µM
same,Cmax,"in vivo; single 1 μL intravitreal injection of OXT-328 1%, mean ± SEM",516 ± 64 µM
same,Effect on OIR,"[3]; eye drops, data not shown",no effect
same,"Avascular area (AVA), percent of total retinal area",[3]; [12],6.9% ± 2.4%
same,"Neovascular area (NVA), percent of total retinal area",[3]; [12],5.6% ± 1.9%
"CCOP(=O)(NCCCCNC(=O)c1ccccc1SC/C=C(\C)CC/C=C(\C)CCC=C(C)C)OCC [Q-922, diethyl 4-(2-((2E,6E)-3,7,11-trimethyldodeca-2,6,10-trienylthio)benzamido)butylphosphoramidate]",Reduction of average new vessel formation versus control,[1]; [11],41.4%
same,Side effects on the ocular surface,[6]; Q-922 eye drops (7.15% formulation) applied to the ocular surface of mice,erythema and mild edema on the ocular surface; also recorded: erythema and edema restricted to the cornea and conjunctiva
same,Time for side effects to subside after treatment was discontinued,[6]; Q-922 eye drops applied to the ocular surface of mice,≤ 48 h
same,Effect on AVA,[3]; [13],no significant effect
same,Effect on NVA,[3]; [13],no significant effect
same,AVA reduction versus vehicle,[3]; [14],28%
same,NVA reduction versus vehicle,[3]; [14],61%
same,"Avascular area (AVA), percent of total retinal area",[3]; [15],8.4% ± 0.5%
same,"Neovascular area (NVA), percent of total retinal area",[3]; [15],9.5% ± 2.6%
same,AVA reduction versus vehicle,[3]; [16],75%
same,NVA reduction versus vehicle,[3]; [16],52%
same,"Avascular area (AVA), percent of total retinal area",[3]; [12],3.5% ± 0.5%
same,"Neovascular area (NVA), percent of total retinal area",[3]; [12],5.2% ± 1.7%
CSc1ccc(/C=C2/C(C)=C(CC(=O)O)c3cc(F)ccc32)cc1 [sulindac sulfide],Retinal Cmax,"[4]; adult mice, single 1 μL intravitreal injection of OXT-328 1%, mean ± SEM",undetectable
same,concentration at 1 h,[4]; mouse,3.1 ± 0.6 µM
CC1=C(CC(=O)O)c2cc(F)ccc2/C1=C\c1ccc(S(C)(=O)=O)cc1 [sulindac sulfone],Level in the cornea,"[4]; adult mice, 1 h after OXT-328 3.5% eye drops (3 drops per eye), mean ± SEM",3.8 ± 0.7 µM
same,"Retinal Cmax, fold lower than OXT-328",[4]; [9],> 30 fold
same,Cmax,[4]; [10],14.5 ± 2.4 µM
"CC1=C(CC(=O)O)c2cc(F)ccc2/C1=C\c1ccc([S+](C)[O-])cc1 (stereo not drawn) [sulindac, reference compound]","Retinal Cmax, fold lower than OXT-328",[4]; [9],> 30 fold
same,concentration at 1 h,[4]; mouse,48.3 ± 7.9 µM
same,Cmax,"[4]; mouse, retina, other: intravitreal injection",7.1 ± 2.4 µM
